Columns and labels:
Experiment in all cases: Bliss excess, mean over the matrix (fraction); higher = more synergy
[1] = tested on: TOV-112D (Ovarian Carcinoma)
In short: (§1)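 Cell lines in DMEM/F12 or RPMI with 10% FBS were plated in 1536-well plates, held 24 hours at 37°C, 5% CO2, then given two-drug dose matrices for 72 hours (DMSO typically 0.2%). Viability was read by CellTiter-Glo 2.0 luminescence and scaled as inhibition from 0 (vehicle wells) to 1 (blank wells). Combination Emax is the second-highest inhibition in the matrix; Bliss excess is observed combination effect minus expected EA + EB − EA·EB, EA and EB being single-agent effects.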

[2] = tested on: DND-41 (T-Lymphoblastic Leukemia)
In short: as §1

[3] = tested on: BFTC-905 (Bladder Carcinoma)
In short: as §1

WM-115 (Melanoma) = tested on: WM-115 (Melanoma)
In short: as §1

[4] = tested on: PANC-08-13 (Pancreatic Carcinoma)
In short: as §1

[5] = tested on: COLO-678 (Colorectal Carcinoma)
In short: as §1

ES1 (Ewing's Sarcoma) = tested on: ES1 (Ewing's Sarcoma)
In short: as §1

[6] = tested on: K-562 (Chronic Myelogenous Leukemia)
In short: as §1

[7] = tested on: SW837 (Colorectal Carcinoma)
In short: as §1

[8] = tested on: KM12 (Colorectal Carcinoma)
In short: as §1

[9] = tested on: L-540 (Hodgkin's Lymphoma)
In short: as §1

NCI-H2818 (Mesothelioma) = tested on: NCI-H2818 (Mesothelioma)
In short: as §1

[10] = tested on: KARPAS-45 (T-Lymphoblastic Leukemia)
In short: as §1

[11] = tested on: KCL-22 (Chronic Myelogenous Leukemia)
In short: as §1

LN-18 (Glioblastoma) = tested on: LN-18 (Glioblastoma)
In short: as §1

[12] = tested on: HL-60 (Acute Myeloid Leukemia)
In short: as §1

[13] = tested on: GR-ST (B-Lymphoblastic Leukemia)
In short: as §1

CHP-212 (Neuroblastoma) = tested on: CHP-212 (Neuroblastoma)
In short: as §1

[14] = tested on: SR (Other Blood Carcinomas)
In short: as §1

[15] = tested on: MOLT-16 (T-Lymphoblastic Leukemia)
In short: as §1

SMILES	Bliss excess [1]	Bliss excess [2]	Bliss excess [3]	Bliss excess (WM-115 (Melanoma))	Bliss excess [4]	Bliss excess [5]	Bliss excess (ES1 (Ewing's Sarcoma))	Bliss excess [6]	Bliss excess [7]	Bliss excess [8]	Bliss excess [9]	Bliss excess (NCI-H2818 (Mesothelioma))	Bliss excess [10]	Bliss excess [11]	Bliss excess (LN-18 (Glioblastoma))	Bliss excess [12]	Bliss excess [13]	Bliss excess (CHP-212 (Neuroblastoma))	Bliss excess [14]	Bliss excess [15]
CCN(CCO)CCCOc1ccc2c(Nc3cc(CC(=O)Nc4cccc(F)c4)[nH]n3)ncnc2c1 [AZD2811] + O=C(c1cc(Cc2n[nH]c(=O)c3ccccc23)ccc1F)N1CCN(C(=O)C2CC2)CC1 [Olaparib] (first compound max 1 µM, 7x7, partner max 10 µM)	0.0355	-0.0059	-0.0029	-0.0343	-0.0087	-0.0223	0.0749	0.0216	0.0027	0.0068	0.0113	-0.0415	-0.115	0.0534	-0.0299	-0.082	-0.0358	-0.0249	-0.0064	0.0395
CN(CCO)CC[C@H](CSc1ccccc1)Nc1ccc(S(=O)(=O)NC(=O)c2ccc(N3CCC([C@@H](O)c4ccccc4-c4ccc(Cl)cc4)CC3)cc2)cc1S(=O)(=O)C(F)(F)F [AZD4320] + C1CN(CCC1(C(=O)N[C@@H](CCO)C2=CC=C(C=C2)Cl)N)C3=NC=NC4=C3C=CN4 [Capivasertib] (first compound max 1 µM, 7x7, partner max 3 µM)	-0.0183	-0.0205	-0.0552	0.0144	-0.0374	-0.0741	0.0027	-0.0155	-0.0453	-0.0572	-0.0075	-0.126	0.0265	-0.0075	-0.053	-0.0438	0.0039	-0.0667	0.095	-0.0201
CN(CCO)CC[C@H](CSc1ccccc1)Nc1ccc(S(=O)(=O)NC(=O)c2ccc(N3CCC([C@@H](O)c4ccccc4-c4ccc(Cl)cc4)CC3)cc2)cc1S(=O)(=O)C(F)(F)F [AZD4320] + C=CCn1c(=O)c2cnc(Nc3ccc(N4CCN(C)CC4)cc3)nc2n1-c1cccc(C(C)(C)O)n1 [AZD1775] (first compound max 1 µM, partner max 1 µM)	-0.0106	0.049	-0.029	0.0052	-0.0019	-0.0459	0.0958	0.0582	-0.0063	-0.0316	0.0594	-0.0586	-0.0041	0.0022	0.0152	0.0574	-0.0585	-0.0137	0.254	0.0417
CN(CCO)CC[C@H](CSc1ccccc1)Nc1ccc(S(=O)(=O)NC(=O)c2ccc(N3CCC([C@@H](O)c4ccccc4-c4ccc(Cl)cc4)CC3)cc2)cc1S(=O)(=O)C(F)(F)F [AZD4320] + CCN(CCO)CCCOc1ccc2c(Nc3cc(CC(=O)Nc4cccc(F)c4)[nH]n3)ncnc2c1 [AZD2811] (first compound max 1 µM, 7x7, partner max 1 µM)	0.0419	0.0382	0.121	-0.0003	-0.0166	-0.0247	0.142	0.0055	0.0082	0.0173	0.0985	-0.0555	-0.0137	0.0572	-0.0187	-0.0281	-0.0272	0.0016	0.0343	-0.0049
CN(CCO)CC[C@H](CSc1ccccc1)Nc1ccc(S(=O)(=O)NC(=O)c2ccc(N3CCC([C@@H](O)c4ccccc4-c4ccc(Cl)cc4)CC3)cc2)cc1S(=O)(=O)C(F)(F)F [AZD4320] + CN(C)CCCOc1ccc(-c2ccc3ncc4c(c3c2)n(C2CCOCC2)c(=O)n4C)cn1 [AZD0156] (first compound max 1 µM, 7x7, partner max 1 µM)	-0.0078	-0.0036	-0.017	-0.0469	-0.0051	-0.081	-0.0129	-0.0027	-0.0322	-0.0489	0.0178	-0.0501	-0.0326	0.0373	-0.0015	0.0228	-0.0358	-0.056	0.0454	-0.0592
CN(CCO)CC[C@H](CSc1ccccc1)Nc1ccc(S(=O)(=O)NC(=O)c2ccc(N3CCC([C@@H](O)c4ccccc4-c4ccc(Cl)cc4)CC3)cc2)cc1S(=O)(=O)C(F)(F)F [AZD4320] + C[C@@H]1COCCN1C2=NC(=NC(=C2)C3(CC3)[S@](=N)(=O)C)C4=C5C=CNC5=NC=C4 [AZD6738] (first compound max 1 µM, 7x7, partner max 10 µM)	0.0134	-0.0028	-0.0286	-0.0413	-0.019	-0.0616	0.0567	-0.0245	-0.0618	-0.0272	0.0082	-0.157	-0.0069	0.0092	-0.0705	-0.0348	-0.0413	-0.0496	-0.0068	-0.0095
CN(CCO)CC[C@H](CSc1ccccc1)Nc1ccc(S(=O)(=O)NC(=O)c2ccc(N3CCC([C@@H](O)c4ccccc4-c4ccc(Cl)cc4)CC3)cc2)cc1S(=O)(=O)C(F)(F)F [AZD4320] + Cc1cc2ncnn2cc1Nc1ncc2c(n1)n(C1CCOCC1)c(=O)n2C [AZD7648] (first compound max 1 µM, 7x7, partner max 10 µM)	-0.019	-0.0011	-0.0375	-0.0054	-0.042	-0.0684	-0.0222	-0.0332	-0.0273	-0.0234	0.0389	-0.0715	0.042	0.0444	0.0064	0.0074	-0.0157	-0.0441	-0.0189	-0.0059
CN(CCO)CC[C@H](CSc1ccccc1)Nc1ccc(S(=O)(=O)NC(=O)c2ccc(N3CCC([C@@H](O)c4ccccc4-c4ccc(Cl)cc4)CC3)cc2)cc1S(=O)(=O)C(F)(F)F [AZD4320] + Cn1cnc2c(F)c(Nc3ccc(Br)cc3Cl)c(C(=O)NOCCO)cc21 [Selumetinib] (first compound max 1 µM, 7x7, partner max 3 µM)	0.0107	-0.0181	-0.0411	0.102	0.0195	0.0536	0.0147	0.0465	-0.0184	0.0423	-0.0184	-0.0136	-0.0248	0.0271	0.031	0.0259	-0.0417	-0.0108	0.0208	-0.0335
COc1nnc2ccc(N3CCC(c4ccc(OCCN5CCN(C)C(=O)[C@H]5C)cc4)CC3)nn12 [AZD5153] + C=CCn1c(=O)c2cnc(Nc3ccc(N4CCN(C)CC4)cc3)nc2n1-c1cccc(C(C)(C)O)n1 [AZD1775] (first compound max 1 µM, partner max 1 µM)	-0.0434	-0.0027	-0.0559	-0.11	0.0108	-0.0287	-0.0845	-0.0718	-0.0653	-0.0456	-0.0433	0.0033	-0.0088	-0.0578	-0.0502	-0.0519	-0.0897	-0.0294	-0.074	-0.0021
COc1nnc2ccc(N3CCC(c4ccc(OCCN5CCN(C)C(=O)[C@H]5C)cc4)CC3)nn12 [AZD5153] + CC1(C)CCC(CN2CCN(c3ccc(C(=O)NS(=O)(=O)c4ccc(NCC5CCOCC5)c([N+](=O)[O-])c4)c(Oc4cnc5[nH]ccc5c4)c3)CC2)=C(c2ccc(Cl)cc2)C1 [Venetoclax] (first compound max 1 µM, 7x7, partner max 1 µM)	-0.0474	0.0352	-0.0577	-0.0717	0.0065	-0.121	-0.0896	-0.0494	-0.0514	-0.0571	-0.0012	-0.0487	0.0433	-0.0343	0.0348	-0.0379	-0.0399	-0.085	-0.0209	0.0309
COc1nnc2ccc(N3CCC(c4ccc(OCCN5CCN(C)C(=O)[C@H]5C)cc4)CC3)nn12 [AZD5153] + CCN(CCO)CCCOc1ccc2c(Nc3cc(CC(=O)Nc4cccc(F)c4)[nH]n3)ncnc2c1 [AZD2811] (first compound max 1 µM, 7x7, partner max 1 µM)	-0.0297	0.0529	-0.0452	-0.0814	-0.0175	-0.0409	-0.0504	-0.0153	-0.0663	-0.0112	-0.0477	-0.0083	-0.0171	0.0425	-0.107	-0.0076	-0.0238	-0.027	-0.0672	-0.0173
COc1nnc2ccc(N3CCC(c4ccc(OCCN5CCN(C)C(=O)[C@H]5C)cc4)CC3)nn12 [AZD5153] + C[C@@H]1COCCN1C2=NC(=NC(=C2)C3(CC3)[S@](=N)(=O)C)C4=C5C=CNC5=NC=C4 [AZD6738] (first compound max 1 µM, 7x7, partner max 10 µM)	0.0306	0.0628	-0.05	-0.0276	0.035	0.0502	-0.015	-0.0303	-0.0066	0.0526	-0.0623	-0.0383	-0.0191	-0.0188	-0.02	-0.0003	-0.0956	-0.0197	-0.016	-0.0105
COc1nnc2ccc(N3CCC(c4ccc(OCCN5CCN(C)C(=O)[C@H]5C)cc4)CC3)nn12 [AZD5153] + Cc1c2c(nn1C)CSCc1cc(n(C)n1)CSc1cc(c3ccccc3c1)OCCCc1c(C(=O)O)n(C)c3c-2c(Cl)ccc13 [AZD5991] (first compound max 1 µM, 7x7, partner max 1 µM)	0.0347	0.0181	-0.0056	-0.0256	0.0228	-0.0476	-0.037	-0.0496	-0.0411	-0.0473	0.0062	0.0183	0.0139	-0.0633	-0.0751	-0.0038	-0.027	-0.0281	-0.0275	-0.0072

Reference: the supplement of paper PMC11061612
